These results are taken from ChEMBL document CHEMBL1201862, “PubChem BioAssay data set” (2004).

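Compound exposure: 48 hours, 5 concentrations, 96-well plates. The concentration for 50% growth inhibition is given as GI50.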 Active and inactive are the calls of the source. Cut-off read from the data, not from the text of the source: active = GI50 up to about 1.1 µM and inactive = higher.

Among the test systems are BT-549; UO-31; A549; HCT-15; NCI/ADR-RES; HOP-92; EKVX; K562; DU-145; M14; COLO 205; SR; OVCAR-8; HL-60; IGROV-1; SNB-19; NCI-H23; SK-MEL-28; CAKI-1; HCT-116.
Experiment in all cases: inhibition of tumour cell growth, NCI panel, 48 h

Turning to `CC(=O)Nc1ccc(-c2nc3ccccc3s2)cc1I`, the GI50 in the assay on BT-549 was 25.5 µM (inactive); with UO-31 it was 15.1 µM (inactive); in the assay with A549, 45 µM (inactive); in the assay on HCT-15, above 83.4 µM; in the assay on NCI/ADR-RES, 42.3 µM (inactive); in the assay on HOP-92, 26.4 µM (inactive). Further, the GI50 in the assay with EKVX was 7.87 µM (inactive); in the assay on K562 it was > 58.1 µM (inactive); in the assay on DU-145, 11 µM (inactive); with M14 it was 36.8 µM (inactive); in the assay with COLO 205, 89.3 µM (inactive); with SR, > 100 µM (inactive). The GI50 in the assay on OVCAR-8 was 18.5 µM (inactive); in the assay on HL-60, > 100 µM (inactive); in the assay on IGROV-1, 0.0184 µM (active); in the assay with SNB-19, 24.3 µM (inactive); in the assay with NCI-H23 it was 18 µM (inactive); in the assay with SK-MEL-28 it was > 100 µM (inactive). The GI50 in the assay with CAKI-1 was 20 µM (inactive); in the assay with HCT-116, 1.16 µM (inactive).
For `CN(C)c1ccc(/C=C(\C#N)c2nc(-c3cc4ccccc4oc3=O)cs2)cc1`, the GI50 is 1.73 µM (inactive) with BT-549; > 50 µM (inactive) in the assay with UO-31; > 50 µM (inactive) in the assay on A549; above 50 µM in the assay on HCT-15; 35.5 µM (inactive) in the assay on NCI/ADR-RES; 5.12 µM (inactive) in the assay on HOP-92. The GI50 in the assay with EKVX was > 50 µM (inactive); in the assay on K562, > 50 µM (inactive); in the assay with DU-145, > 50 µM (inactive); with M14, 15.7 µM (inactive); in the assay on COLO 205, > 50 µM (inactive); in the assay with SR, > 50 µM (inactive). In addition, the GI50 with OVCAR-8 was 20.3 µM (inactive); in the assay with HL-60, > 50 µM (inactive); with IGROV-1 it was 15.4 µM (inactive); in the assay on SNB-19 it was 13.2 µM (inactive); in the assay on SK-MEL-28, > 50 µM (inactive); in the assay with CAKI-1 it was > 50 µM (inactive). Further, the GI50 with HCT-116 is 20 µM (inactive).
For the molecule `COc1cc(C(=O)O)c([N+](=O)[O-])c(OC)c1OC`, the GI50 in the assay with BT-549 is > 100 µM (inactive); in the assay with UO-31, > 100 µM (inactive); in the assay with A549, > 100 µM (inactive); in the assay on HCT-15, above 100 µM; in the assay on NCI/ADR-RES, > 100 µM (inactive); in the assay on HOP-92, > 100 µM (inactive). Further, the GI50 with EKVX, in the assay on DU-145, in the assay with M14, with COLO 205, in the assay on SR and in the assay with OVCAR-8 was > 100 µM (inactive) throughout. In addition, the GI50 in the assay with IGROV-1, with SNB-19, in the assay on NCI-H23, in the assay with SK-MEL-28, with CAKI-1 and with HCT-116 was > 100 µM (inactive) each time.
Consider `Cc1ccc(/C(C#N)=C/c2cccc([N+](=O)[O-])c2)cc1`, for which the GI50 in the assay with BT-549 is > 100 µM (inactive); in the assay with UO-31, 45.3 µM (inactive); in the assay on A549 it was > 100 µM (inactive); in the assay on HCT-15 it was above 100 µM; with NCI/ADR-RES, > 100 µM (inactive); in the assay with HOP-92 it was 32.2 µM (inactive). The GI50 in the assay with EKVX is 29.5 µM (inactive); in the assay on K562, > 100 µM (inactive); in the assay with DU-145, 98.6 µM (inactive); in the assay with M14, > 100 µM (inactive); with COLO 205, > 100 µM (inactive); in the assay on SR, > 100 µM (inactive). The GI50 in the assay with OVCAR-8 is 59.2 µM (inactive); with IGROV-1 it was 80.5 µM (inactive); with SNB-19 it was 43.8 µM (inactive); in the assay with NCI-H23 it was > 100 µM (inactive); in the assay on SK-MEL-28, > 100 µM (inactive); in the assay with CAKI-1 it was > 100 µM (inactive). Further, the GI50 with HCT-116 was 76.2 µM (inactive).
Take `CC(C)(C)NCC(O)c1ccc(O)c(CO)n1` (stereo unspecified): the GI50 in the assay with BT-549 was > 100 µM (inactive); in the assay with UO-31 it was > 100 µM (inactive); in the assay with A549, > 100 µM (inactive); in the assay with HCT-15, above 100 µM; in the assay with NCI/ADR-RES it was > 100 µM (inactive); in the assay on HOP-92, > 100 µM (inactive). Further, the GI50 in the assay on EKVX, with DU-145, with M14, with COLO 205, with SR and in the assay with OVCAR-8 was > 100 µM (inactive) each time. Moreover, the GI50 with HL-60, in the assay on IGROV-1, in the assay with SNB-19, in the assay with NCI-H23, with SK-MEL-28 and in the assay on CAKI-1 was > 100 µM (inactive) each time. For the same molecule, the GI50 in the assay with HCT-116 was > 100 µM (inactive).
On to `Cc1nc2ccccc2n1Cc1nnc(N)o1`, for which the GI50 in the assay with BT-549 is > 100 µM (inactive); in the assay with UO-31 it was > 100 µM (inactive); with A549, 53.3 µM (inactive); in the assay with HCT-15, above 100 µM; with NCI/ADR-RES it was > 100 µM (inactive); with HOP-92, > 100 µM (inactive). Besides, the GI50 in the assay with EKVX, with K562, with DU-145, in the assay on M14, with COLO 205 and with SR was > 100 µM (inactive) each time. The GI50 with OVCAR-8, in the assay with HL-60, in the assay with IGROV-1, in the assay on SNB-19, in the assay on NCI-H23 and in the assay on SK-MEL-28 was > 100 µM (inactive) throughout. The GI50 with HCT-116 is > 100 µM (inactive).
On to `O=c1c2ccc(Cl)cc2oc2c(CSc3ccccc3)cccc12`, for which the GI50 in the assay on BT-549 is > 43 µM (inactive); in the assay with A549, > 32.4 µM (inactive); in the assay with HCT-15, 28.4 µM; with NCI/ADR-RES it was > 50.2 µM (inactive); in the assay with HOP-92, > 39.4 µM (inactive); with EKVX, > 50.4 µM (inactive). For the same molecule, the GI50 was 15.3 µM (inactive) in the assay with K562; 70.5 µM (inactive) in the assay on DU-145; > 42.5 µM (inactive) in the assay on M14; > 70 µM (inactive) with COLO 205; 9.64 µM (inactive) in the assay with SR; 62.7 µM (inactive) in the assay with OVCAR-8. The GI50 is > 24 µM (inactive) in the assay on IGROV-1; > 45.5 µM (inactive) with SNB-19; 28.4 µM (inactive) in the assay on NCI-H23; > 53.1 µM (inactive) with SK-MEL-28; > 38.5 µM (inactive) with CAKI-1; 28.2 µM (inactive) in the assay on HCT-116.
As for `COc1ccc(-c2c3c(n(C4OC(CO)C(O)C(O)C4O)c(=S)c2C#N)CCC3)cc1` (stereo unspecified), the GI50 was 51.2 µM (inactive) in the assay with BT-549; > 100 µM (inactive) in the assay on UO-31; 68.9 µM (inactive) in the assay with A549; 85.7 µM in the assay with HCT-15; > 100 µM (inactive) in the assay with NCI/ADR-RES; 28.6 µM (inactive) in the assay with HOP-92. Besides, the GI50 was 41.9 µM (inactive) in the assay on K562; 66.7 µM (inactive) in the assay with DU-145; 36.2 µM (inactive) in the assay with M14; 68.9 µM (inactive) with COLO 205; 38.4 µM (inactive) in the assay with SR; 34.7 µM (inactive) with HL-60. Further, the GI50 in the assay with IGROV-1 is 48.6 µM (inactive); in the assay on SNB-19 it was 37.7 µM (inactive); in the assay with NCI-H23, 28.7 µM (inactive); in the assay with SK-MEL-28, 35.1 µM (inactive); with CAKI-1, > 100 µM (inactive); in the assay with HCT-116, 49.2 µM (inactive).
Consider `CC(CCC(=O)O)(c1ccc(O)cc1)c1ccc(O)cc1`, for which the GI50 was > 100 µM (inactive) in the assay with BT-549; > 100 µM (inactive) with UO-31; > 100 µM (inactive) in the assay with A549; above 100 µM with HCT-15; > 100 µM (inactive) in the assay on NCI/ADR-RES; > 100 µM (inactive) with HOP-92. Further, the GI50 with EKVX, with K562, in the assay on DU-145, with M14, in the assay with SR and with OVCAR-8 was > 100 µM (inactive) each time. For the same molecule, the GI50 with IGROV-1, in the assay on SNB-19, in the assay with NCI-H23, in the assay with SK-MEL-28, with CAKI-1 and with HCT-116 was > 100 µM (inactive) in each case.
On to `COC1(OC)C2(Cl)CCC1(Cl)C(OC(C)=O)C2` (stereo unspecified), for which the GI50 is > 100 µM (inactive) in the assay on BT-549; > 100 µM (inactive) in the assay on UO-31; > 100 µM (inactive) with A549; above 100 µM in the assay with HCT-15; > 100 µM (inactive) in the assay with NCI/ADR-RES; > 100 µM (inactive) in the assay with HOP-92. In addition, the GI50 with EKVX, in the assay on K562, in the assay with DU-145, in the assay on M14, in the assay on COLO 205 and in the assay on SR was > 100 µM (inactive) throughout. Moreover, the GI50 in the assay on OVCAR-8, in the assay with IGROV-1, with SNB-19, in the assay with NCI-H23, in the assay on SK-MEL-28 and in the assay with CAKI-1 was > 100 µM (inactive) throughout. Further, in the assay on HCT-116, the GI50 was > 100 µM (inactive).
Consider `COC(=O)c1c(OC)cc2cc3c(c(O)c2c1C)C(=O)C1(O)C(=O)C=C(OC)C(OC(=O)CC(C)N)=C1C3=O` (stereo unspecified), for which the GI50 was 34.7 µM (inactive) in the assay on BT-549; 18.7 µM (inactive) with UO-31; 18.6 µM (inactive) in the assay on A549; 17.3 µM with HCT-15; 23.2 µM (inactive) in the assay with NCI/ADR-RES; 18.2 µM (inactive) in the assay on HOP-92. Besides, the GI50 in the assay on EKVX is 20 µM (inactive); in the assay on DU-145 it was 11.6 µM (inactive); in the assay with M14, 32.7 µM (inactive); in the assay on COLO 205, > 100 µM (inactive); in the assay with SR it was 12.9 µM (inactive); with OVCAR-8 it was 11.9 µM (inactive). Besides, the GI50 in the assay on HL-60 was 16.4 µM (inactive); with IGROV-1 it was 13.6 µM (inactive); in the assay with SNB-19 it was 6.41 µM (inactive); in the assay on NCI-H23, 8.95 µM (inactive); in the assay with SK-MEL-28, 31.3 µM (inactive); with CAKI-1 it was 14.2 µM (inactive). The GI50 in the assay on HCT-116 was 4.28 µM (inactive).
